Results as given in patent US11993603B2, “Preparation for 6-amino-1H-pyrazolo[3,4-d]pyrimidine-based JAK kinase inhibitor and application thereof” (INSTITUTE OF MATERIA MEDICA, CHINESE ACADEMY OF MEDICAL …, priority 2018, dated 2024).

Columns and labels:
Assay type in all cases: biochemical
JAK-2 = JAK-2 (Homo sapiens (Human), UniProt O60674); test: Inhibition test on JAK-2 kinase (FRET peptide substrate assay); conditions: kinase 1 nM, 1 h at room temperature
Text: (§1) Experiment Example (Inhibition Tests on JAK-1, JAK-2 and JAK-3 Kinases)
(§2) To evaluate the inhibitory activity of the compound on JAK-1, JAK-2 and JAK-3 kinases
(§3) A proteolytic enzyme is coupled to exert different proteolysis on a specific phosphorylated and nonphosphorylated peptide substrate based on fluorescence resonance energy transfer (FRET). Both ends of the peptide substrate were respectively labeled FRET energy donor coumarin and energy receptor fluorescein, and at this time, the donor was stimulated to produce energy transfer when the donor is close to a receptor.
(§4) In Kinase Reaction, JAK-1, JAK-2 or JAK-3 may transfer γ-phosphoric acid in ATP onto a single tyrosine residue of a peptide substrate; and there were JAK-1, JAK-2 or JAK-3 inhibitors in the system, γ-phosphoric acid groups on ATP would be not transferred onto the peptide substrate, thus resulting in the failure of phosphorylation. An evaluation experiment was designed based on the principle, a peptide substrate was designed with kinase phosphorylation sites, namely, protein restriction enzyme cutting sites; and both ends thereof were respectively connected with 2 fluorophores as a donor and a receptor respectively; if the kinase kept activity in the system, a γ-phosphonic acid group was transferred onto restriction enzyme cutting sites of the substrate, so that the γ-phosphonic acid group would not be cut and separated into two segments by a protease; moreover, under the stimulation of a laser having a specific wavelength, energy from a segment of fluorescence would be transferred onto another end of fluorophores, thus emitting energy. Otherwise, after kinase activity was inhibited, phosphoric acid groups would be not transferred, and restriction enzyme cutting sites in the substrate would be cut by a […] in the system to separate the substrate into two segments, thereby no energy transfer of fluorescence occurred. Based on this, the activity of the kinase was evaluated.
(§5) In this experiment, a 10 μl kinase reaction system was selected, firstly, 2.5 μl kinase (concentration: 1 nM), 2.5 μl peptide substrate (concentration: 2 μM), 2.5 μl ATP (concentration: […]) and 2.5 μl compound were added to each system for reaction for 1 h at room temperature, and then a 5 μl test solution was added for reaction for 1 h at room temperature, then a 5 μl stop buffer was added. A microplate reader (Synergy H1, BioTek, USA) was used to measure fluorescence intensity (emission intensity of coumarin at 445 nm and emission intensity of fluorescein at 520 nm were detected under the stimulation of 400 nm). The inhibitory activity of each compound was calculated, where it was believed that fluorescence intensity of a well not containing the kinase was 100% inhibited.

JAK-1 = JAK-1 (Homo sapiens (Human), UniProt P23458); test: Inhibition test on JAK-1 kinase (FRET peptide substrate assay); conditions: kinase 1 nM, 1 h at room temperature
Text: as §1, §2, §3, §4, §5

JAK-3 = JAK-3 (Homo sapiens (Human), UniProt P52333); test: Inhibition test on JAK-3 kinase (FRET peptide substrate assay); conditions: kinase 1 nM, 1 h at room temperature; read-out: IC50 (nM) JAK-3
Text: as §1, §2, §3, §4, §5

JAK-3, sequence (P52333 whole entry): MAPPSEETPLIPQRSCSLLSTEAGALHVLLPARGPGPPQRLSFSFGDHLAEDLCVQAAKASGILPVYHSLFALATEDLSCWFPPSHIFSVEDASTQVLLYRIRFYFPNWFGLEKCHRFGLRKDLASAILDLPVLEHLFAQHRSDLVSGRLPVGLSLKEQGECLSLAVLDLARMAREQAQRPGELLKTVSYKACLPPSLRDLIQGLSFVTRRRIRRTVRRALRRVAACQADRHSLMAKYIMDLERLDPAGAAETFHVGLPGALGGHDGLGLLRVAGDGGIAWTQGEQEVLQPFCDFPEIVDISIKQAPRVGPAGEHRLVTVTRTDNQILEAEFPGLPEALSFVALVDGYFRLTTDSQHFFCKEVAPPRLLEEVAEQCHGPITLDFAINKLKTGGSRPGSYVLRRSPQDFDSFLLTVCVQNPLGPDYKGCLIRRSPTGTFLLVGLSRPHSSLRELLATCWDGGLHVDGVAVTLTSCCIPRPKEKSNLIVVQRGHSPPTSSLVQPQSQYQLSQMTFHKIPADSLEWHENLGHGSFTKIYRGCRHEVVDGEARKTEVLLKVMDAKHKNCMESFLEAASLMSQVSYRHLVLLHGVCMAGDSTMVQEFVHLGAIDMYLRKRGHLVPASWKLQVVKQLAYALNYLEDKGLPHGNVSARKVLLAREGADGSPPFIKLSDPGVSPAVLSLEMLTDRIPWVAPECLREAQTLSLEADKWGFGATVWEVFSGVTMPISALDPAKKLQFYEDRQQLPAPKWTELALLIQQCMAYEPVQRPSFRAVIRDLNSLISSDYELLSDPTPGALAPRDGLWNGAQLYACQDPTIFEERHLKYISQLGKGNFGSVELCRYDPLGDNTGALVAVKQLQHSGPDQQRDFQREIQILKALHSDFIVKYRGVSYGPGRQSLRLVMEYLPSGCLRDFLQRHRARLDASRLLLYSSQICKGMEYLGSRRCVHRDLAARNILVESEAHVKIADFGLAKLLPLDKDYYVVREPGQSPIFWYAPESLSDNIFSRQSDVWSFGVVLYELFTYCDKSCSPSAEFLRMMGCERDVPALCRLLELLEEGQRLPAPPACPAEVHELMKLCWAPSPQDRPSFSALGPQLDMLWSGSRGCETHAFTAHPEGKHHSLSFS
JAK-1, sequence (P23458 whole entry): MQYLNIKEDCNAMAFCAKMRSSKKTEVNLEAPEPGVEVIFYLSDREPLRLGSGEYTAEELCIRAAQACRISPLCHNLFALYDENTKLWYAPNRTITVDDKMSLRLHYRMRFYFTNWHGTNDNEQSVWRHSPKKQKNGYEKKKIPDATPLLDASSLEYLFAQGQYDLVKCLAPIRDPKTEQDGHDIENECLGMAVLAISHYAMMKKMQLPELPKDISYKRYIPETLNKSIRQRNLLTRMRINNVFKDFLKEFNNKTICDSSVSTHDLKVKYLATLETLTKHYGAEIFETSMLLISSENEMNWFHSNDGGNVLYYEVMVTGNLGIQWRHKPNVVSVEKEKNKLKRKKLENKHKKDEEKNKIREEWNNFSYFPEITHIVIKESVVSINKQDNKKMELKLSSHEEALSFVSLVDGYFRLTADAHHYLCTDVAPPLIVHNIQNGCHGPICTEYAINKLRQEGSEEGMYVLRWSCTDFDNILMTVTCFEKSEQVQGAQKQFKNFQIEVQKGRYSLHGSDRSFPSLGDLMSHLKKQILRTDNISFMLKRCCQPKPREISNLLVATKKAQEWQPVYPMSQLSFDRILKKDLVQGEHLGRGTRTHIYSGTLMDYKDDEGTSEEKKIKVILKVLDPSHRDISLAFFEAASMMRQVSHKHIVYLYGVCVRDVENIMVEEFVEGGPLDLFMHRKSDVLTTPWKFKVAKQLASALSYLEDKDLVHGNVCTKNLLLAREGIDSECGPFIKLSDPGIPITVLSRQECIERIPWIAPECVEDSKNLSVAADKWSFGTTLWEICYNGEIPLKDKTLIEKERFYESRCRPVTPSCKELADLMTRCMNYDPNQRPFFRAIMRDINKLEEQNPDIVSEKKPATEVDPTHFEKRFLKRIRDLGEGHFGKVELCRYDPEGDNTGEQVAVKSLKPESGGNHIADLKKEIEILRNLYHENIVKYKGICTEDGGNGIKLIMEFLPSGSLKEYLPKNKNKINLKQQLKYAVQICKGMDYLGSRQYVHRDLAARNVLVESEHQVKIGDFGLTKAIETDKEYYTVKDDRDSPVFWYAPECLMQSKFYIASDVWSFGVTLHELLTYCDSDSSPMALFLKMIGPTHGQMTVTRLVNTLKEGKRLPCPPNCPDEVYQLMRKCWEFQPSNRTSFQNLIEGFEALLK
JAK-2, sequence (O60674 whole entry): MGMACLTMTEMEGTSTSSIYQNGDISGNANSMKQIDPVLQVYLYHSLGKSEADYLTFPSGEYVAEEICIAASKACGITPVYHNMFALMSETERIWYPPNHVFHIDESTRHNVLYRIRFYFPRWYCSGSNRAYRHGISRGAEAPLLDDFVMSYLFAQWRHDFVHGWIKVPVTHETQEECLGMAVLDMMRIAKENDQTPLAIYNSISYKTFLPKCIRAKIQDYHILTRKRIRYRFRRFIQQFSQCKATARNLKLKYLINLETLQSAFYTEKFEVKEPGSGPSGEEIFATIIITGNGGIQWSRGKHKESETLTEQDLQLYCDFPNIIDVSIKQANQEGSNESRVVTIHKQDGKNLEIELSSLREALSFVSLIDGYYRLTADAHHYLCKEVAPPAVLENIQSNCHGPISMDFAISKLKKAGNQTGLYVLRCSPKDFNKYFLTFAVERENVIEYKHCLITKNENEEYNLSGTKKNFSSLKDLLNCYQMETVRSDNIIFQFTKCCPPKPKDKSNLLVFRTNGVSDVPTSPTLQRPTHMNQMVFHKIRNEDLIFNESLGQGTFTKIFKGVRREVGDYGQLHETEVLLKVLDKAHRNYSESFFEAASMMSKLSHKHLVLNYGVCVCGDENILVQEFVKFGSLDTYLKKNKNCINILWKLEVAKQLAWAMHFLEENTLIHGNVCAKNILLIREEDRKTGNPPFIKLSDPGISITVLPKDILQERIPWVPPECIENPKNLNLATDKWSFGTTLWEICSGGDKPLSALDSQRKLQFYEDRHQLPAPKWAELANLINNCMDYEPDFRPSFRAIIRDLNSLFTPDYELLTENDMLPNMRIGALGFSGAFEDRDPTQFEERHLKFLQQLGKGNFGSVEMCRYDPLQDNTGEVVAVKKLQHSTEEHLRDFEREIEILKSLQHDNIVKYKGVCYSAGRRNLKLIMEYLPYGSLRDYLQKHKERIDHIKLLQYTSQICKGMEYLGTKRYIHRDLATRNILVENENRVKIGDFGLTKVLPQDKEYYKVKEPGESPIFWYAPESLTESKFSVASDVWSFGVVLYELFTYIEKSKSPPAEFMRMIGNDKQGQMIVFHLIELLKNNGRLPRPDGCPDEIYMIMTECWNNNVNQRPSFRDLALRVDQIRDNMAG

C/C=C/C(=O)Nc1cccc(Cn2ncc3cnc(Nc4ccc(N5CCN(C)CC5)cc4)nc32)c1 [Example 14, N-(3-((6-((4-(4-methylpiperazin-1-yl)phenyl)amino)-1H-pyrazolo[3,4-d]pyrimidin-1-yl)methyl)phenyl)but-2-enamide]
IC50 (JAK-2): 1310 nM
IC50 (JAK-1): 274 nM
IC50 (JAK-3): 0.9 nM

C=CC(=O)Nc1ccc(Cn2ncc3cnc(Nc4cnn(CCOC)c4)nc32)cc1 [Example 15, N-(4-((6-((1-(2-methoxyethyl)-1H-pyrazol-4-yl)amino)-1H-pyrazolo[3,4-d]pyrimidine-1-yl)methyl)phenyl)acrylamide]
IC50 (JAK-2): 602 nM
IC50 (JAK-1): 1540 nM
IC50 (JAK-3): 0.5 nM

C=CC(=O)Nc1ccc(Cn2ncc3cnc(Nc4cnn(C)c4)nc32)cc1 [Example 16, N-(4-((6-((1-methyl-1H-pyrazol-4-yl)amino)-1H-pyrazolo[3,4-d]pyrimidine-1-yl)methyl)phenyl)acrylamide]
IC50 (JAK-2): 770 nM
IC50 (JAK-1): 1410 nM
IC50 (JAK-3): 1.4 nM

C=CC(=O)Nc1ccc(Cn2ncc3cnc(Nc4cnn(CCO)c4)nc32)cc1 [Example 17, N-(4-((6-((1-(2-hydroxyethyl)-1H-pyrazol-4-yl)amino)-1H-pyrazolo[3,4-d]pyrimidin-1-yl)methyl)phenyl)acrylamide]
IC50 (JAK-2): 846 nM
IC50 (JAK-1): 1420 nM
IC50 (JAK-3): 2 nM

C=CC(=O)Nc1ccc(Cn2ncc3cnc(Nc4ccccc4)nc32)cc1 [Example 18, N-(4-((6-aniline-1H-pyrazolo[3,4-d]pyrimidin-1-yl)methyl)phenyl)acrylamide]
IC50 (JAK-2): 1280 nM
IC50 (JAK-1): 1990 nM
IC50 (JAK-3): 2.8 nM

C=CC(=O)Nc1ccc(Cn2ncc3cnc(Nc4ccc(F)cc4)nc32)cc1 [Example 19, N-(4-((6-((4-fluorophenyl)amino)-1H-pyrazolo[3,4-d]pyrimidin-1-yl)methyl)phenyl)acrylamide]
IC50 (JAK-2): 1800 nM
IC50 (JAK-1): 1580 nM
IC50 (JAK-3): 3.7 nM

C=CC(=O)Nc1ccc(Cn2ncc3cnc(Nc4ccc(N5CCOCC5)cc4)nc32)cc1 [Example 20, N-(4-((6-((4-morpholinylphenyl)amino)-1H-pyrazolo[3,4-d]pyrimidin-1-yl)methyl)phenyl)acrylamide]
IC50 (JAK-2): 892 nM
IC50 (JAK-1): 934 nM
IC50 (JAK-3): 1.7 nM

C=CC(=O)Nc1ccc(Cn2ncc3cnc(Nc4ccc(N5CCN(C)CC5)cc4)nc32)cc1 [Example 21, N-(4-((6-((4-(4-methylpiperazin-1-yl)phenyl)amino)-1H-pyrazolo[3,4-d]pyrimidin-1-yl)methyl)phenyl)acrylamide]
IC50 (JAK-2): 1800 nM
IC50 (JAK-1): 2850 nM
IC50 (JAK-3): 0.2 nM

C/C=C/C(=O)Nc1ccc(Cn2ncc3cnc(Nc4cnn(CCOC)c4)nc32)cc1 [Example 22, N-(4-((6-((1-(2-methoxy-ethyl)-1H-pyrazol-4-yl)amino)-1H-pyrazolo[3,4-d]pyrimidine-1-yl)methyl)phenyl)but-2-enamide]
IC50 (JAK-2): 1250 nM
IC50 (JAK-1): 918 nM
IC50 (JAK-3): 2 nM

C/C=C/C(=O)Nc1ccc(Cn2ncc3cnc(Nc4cnn(C)c4)nc32)cc1 [Example 23, N-(4-((6-((1-methyl-1H-pyrazol-4-yl)amino)-1H-pyrazolo[3,4-d]pyrimidin-1-yl)methyl)phenyl)but-2-enamide]
IC50 (JAK-2): 697 nM
IC50 (JAK-1): 940 nM
IC50 (JAK-3): 0.1 nM

C/C=C/C(=O)Nc1ccc(Cn2ncc3cnc(Nc4cnn(CCO)c4)nc32)cc1 [Example 24, N-(4-((6-((1-(2-hydroxyethyl)-1H-pyrazol-4-yl)amino)-1H-pyrazolo[3,4-d]pyrimidin-1-yl)methyl)phenyl)but-2-enamide]
IC50 (JAK-2): 948 nM
IC50 (JAK-1): 1120 nM
IC50 (JAK-3): 0.2 nM

C/C=C/C(=O)Nc1ccc(Cn2ncc3cnc(Nc4ccccc4)nc32)cc1 [Example 25, N-(4-((6-aniline-1H-pyrazolo[3,4-d]pyrimidin-1-yl)methyl)phenyl)but-2-enamide]
IC50 (JAK-2): 1040 nM
IC50 (JAK-1): 2400 nM
IC50 (JAK-3): 1.2 nM

C/C=C/C(=O)Nc1ccc(Cn2ncc3cnc(Nc4ccc(F)cc4)nc32)cc1 [Example 26, N-(4-((6-((4-fluorophenyl)amino)-1H-pyrazolo[3,4-d]pyrimidine-1-yl)methyl)phenyl)but-2-enamide]
IC50 (JAK-2): 804 nM
IC50 (JAK-1): 880 nM
IC50 (JAK-3): 0.3 nM

C/C=C/C(=O)Nc1ccc(Cn2ncc3cnc(Nc4ccc(N5CCOCC5)cc4)nc32)cc1 [Example 27, N-(4-((6-((4-morpholinylphenyl)amino)-1H-pyrazolo[3,4-d]pyrimidin-1-yl)methyl)phenyl)but-2-enamide]
IC50 (JAK-2): 893 nM
IC50 (JAK-1): 960 nM
IC50 (JAK-3): 2 nM

C/C=C/C(=O)Nc1ccc(Cn2ncc3cnc(Nc4ccc(N5CCN(C)CC5)cc4)nc32)cc1 [Example 28, N-(4-((6-((4-(4-methylpiperazin-1-yl)phenyl)amino)-1H-pyrazolo[3,4-d]pyrimidin-1-yl)methyl)phenyl)but-2-enamide]
IC50 (JAK-2): 790 nM
IC50 (JAK-1): 4090 nM
IC50 (JAK-3): 2.3 nM
